Experiment in all cases: MIC (YAG medium)
What all share (format): cell-based

The subject of one assay is Aspergillus terreus AT4. The conditions noted are these: YAG medium, MIC banded into grades, AT4; for MIC: Aspergillus terreus, read-out: MIC A. terreus (grade). Here is the method:
(§1) Between 1 and 5 mgs of compound were accurately weighed out into a sterile Eppendorf tube. The compound was dissolved in DMSO to give a solution containing 5 mg/mL. Tubes were stored at −20° C. until required.
(§2) On the day of testing thawed solutions were vortex mixed to ensure homogeneity. 30 μL of solution was removed and added to 570 μL of sterile water in a separate sterile Eppendorf The thoroughly mixed solution was used to prepare a series of doubling dilutions in water, in a deep well plate. […] replicate plates were prepared using a Minitrak by aspirating 20 μL from each well into eleven clear polystyrene 96 well plates.
(§3) Spores of Aspergillus spp. (Aspergillus fumigatus [two strains], Aspergillus terreus [two strains], Aspergillus niger and Aspergillus flavus) were harvested from cultures grown on Sabarauds agar for 5 days, and resuspended in PBS/Tween 80 to approx 1×10^7 cfu/mL. Other filamentous fungi (Absidia corymbifera, Fusarium solani, Rhizomucor, Scedosporium spp., Trichophyton spp.), were grown on Sabarauds agar for 2-10 days and spores/hyphae resuspended in PBS/Tween to give approx 1×10^7 cfu/mL. Candida species (Candida albicans, Candida glabrata, Candida krusei, Candida parapsilosis and Candida tropicalis) were grown on Sabarauds agar, cells were harvested from the agar using a sterile loop and resuspended in PBS/Tween 80 to approx 1×10^6 cfu/mL. Each organism suspension was diluted in RPMI medium, containing 2% glucose and 0.135 M MOPS buffer (pH 7.0) to 0.5−2×10^4 cfu/mL for Aspergillus spp. and other filamentous fungi and 0.5-2×10^3 cfu/mL for yeast. 80 μL of an organism suspension was added to each well of the plate containing drug dilutions.
(§4) This produced MIC plates with a drug range 50-0.05 mg/L and organism inocula of 1-2×10^4 cfu/mL for Aspergillus spp. and other filamentous fungi and 1-2×10^3 cfu/mL for yeasts. All plates were incubated for 24-48 hrs at 35° C. Growth was assessed by monitoring the optical density at 485 nm for each well. The MIC of a compound is the lowest drug concentration that inhibits growth of an organism by >80% compared with a drug free control. MICs are recorded as mg/L. Other growth media can be used for susceptibility testing, and the activity of the described compounds can also be assessed in a medium comprising 1% glucose, 1% ammonium chloride and 0.5% yeast extract (YAG medium). To perform MIC tests in this medium, dilutions of compounds are prepared in microtitre plates as described above. Fungal strains to be tested are grown and harvested in an identical manner to that described above, each organism suspension is then diluted in YAG medium to 0.5-2×10^4 cfu/mL for Aspergillus spp. and other filamentous fungi and 0.5-2×10^3 cfu/mL for yeast. 80 μL of an organism suspension was added to each well of the plate containing drug dilutions. This produced MIC plates with a drug range 50-0.05 mg/L and organism inocula of 1-2×10^4 cfu/mL for Aspergillus spp. and other filamentous fungi and 1-2×10^3 cfu/mL for yeasts. All plates were incubated for 24 hrs at 35° C. Growth was assessed by monitoring the optical density at 485 nm for each well. The MIC of a compound is the lowest drug concentration that inhibits growth of an organism by >70% compared with a drug free control. MICs are recorded as mg/L. In cases where the MIC of an organism is […] mg/L the MIC is repeated using a concentration range of 0.5-0.0005 mg/L. MIC tests in YAG medium have more clear-cut endpoints and have slightly lower MICs than those performed in RPMI medium.
(§5) The following organisms were tested: Absidia corymbifera, Aspergillus flavus, Aspergillus fumigatus AF293 and AF210, Aspergillus niger, Aspergillus terreus AT4 and AT49, Candida albicans, Candida glabrata, Candida krusei, Candida parapsilosis, Candida tropicalis, Fusarium solani, Rhizomucor sp., Scedosporium apiospermum, Scedosporium prolificans, Trichophyton mentagrophytes, and Trichophyton rubrum.

In the next assay the test system is Aspergillus flavus. The following applies: YAG medium, MIC banded into grades; for MIC: Aspergillus flavus, read-out: MIC A. flavus (grade). On the procedure: as §1, §2, §3, §4, §5
Another assay deals with Aspergillus terreus AT49. The following applies: YAG medium, MIC banded into grades, AT49; for MIC: Aspergillus terreus, read-out: MIC A. terreus 49 (grade). On the procedure: as §1, §2, §3, §4, §5
In assay [1] the test system is Aspergillus fumigatus AF293. The following applies: YAG medium, MIC banded into grades, AF293; for MIC: Aspergillus fumigatus, read-out: MIC A. fumigatus (grade). Here is the method:
as §1, §2, §3, §4, §5

For assay [2], the system named is Aspergillus fumigatus AF210. The following applies: YAG medium, MIC banded into grades, AF210; for MIC: Aspergillus fumigatus, read-out: MIC A. fumigatus 210 (grade). On the procedure: as §1, §2, §3, §4, §5
For another assay, the system named is Aspergillus niger. The following applies: YAG medium, MIC banded into grades; for MIC: Aspergillus niger, read-out: MIC A. niger (grade). On the procedure:
as §1, §2, §3, §4, §5

Converted amounts (≈) assume the structure as drawn.

As usually defined, the MIC is the least concentration at which growth counts as inhibited.

With “2-Oxo-2-(2-phenyl-indolizin-3-yl)-N-{4-[4-(2-pyridin-yl-ethyl)-perazin-1-yl]-phenyl}-acetamide [Example 36]”, the “MIC A. terreus (grade)” value against Aspergillus terreus AT4 was 3 (A grade of 3 represents an MIC of less than 1 mg/L). The “MIC A. flavus (grade)” value against Aspergillus flavus was 3 (A grade of 3 represents an MIC of less than 1 mg/L). Further, in the assay on Aspergillus terreus AT49, the “MIC A. terreus 49 (grade)” value is 3 (A grade of 3 represents an MIC of less than 1 mg/L). Moreover, the “MIC A. fumigatus (grade)” value in assay [1] is given as 3 (A grade of 3 represents an MIC of less than 1 mg/L). Moreover, the “MIC A. fumigatus 210 (grade)” value in assay [2] was 3 (A grade of 3 represents an MIC of less than 1 mg/L). In addition, the “MIC A. niger (grade)” value in the assay with Aspergillus niger is given as 3 (A grade of 3 represents an MIC of less than 1 mg/L).

As for `O=C(Nc1ccc(N2CCS(=O)(=O)CC2)cc1)C(=O)c1c(-c2ccccc2)cc2ccccn12` [Example 1, N-[4-(1,1-Dioxo-1λ^6-thiomorpholin-4-yl)-phenyl]-2-oxo-2-(2-phenyl-indolizin-3-yl)-acetamide], the MIC in the assay with Aspergillus terreus AT4 was 1 to 10 µg/mL (≈ 2.11 to 21.1 µM); with Aspergillus flavus, 1 to 10 µg/mL (≈ 2.11 to 21.1 µM); in the assay with Aspergillus terreus AT49, over 10 µg/mL; in assay [1] it was over 10 µg/mL; in assay [2] it was over 10 µg/mL; with Aspergillus niger it was over 10 µg/mL.

On to `O=C(Nc1ccccc1F)C(=O)c1c(-c2ccccc2)cc2ccc3ccccc3n12` [Example 4, N-(2-fluoro-phenyl)-2-oxo-2-(2-phenyl-pyrrolo[1,2-a]quinolin-1-yl)-acetamide], for which the MIC (in the assay with Aspergillus terreus AT4; with Aspergillus flavus; with Aspergillus terreus AT49; in assay [1]; in assay [2]; in the assay on Aspergillus niger) was over 10 µg/mL in each case.

As for `CS(=O)(=O)NC(=O)c1ccc(NC(=O)C(=O)c2c(-c3ccccc3)cc3ccccn23)cc1` [Example 5, N-(4-methanesulfonylaminocarbonyl-phenyl)-2-oxo-2-(2-phenyl-indolizin-3-yl)-acetamide], the MIC (with Aspergillus terreus AT4; with Aspergillus flavus; in the assay with Aspergillus terreus AT49; in assay [1]; in assay [2]; in the assay with Aspergillus niger) was over 10 µg/mL each time.

Turning to `COc1ccc(NC(=O)C(=O)c2c(C)c(-c3ccccc3)c3ccccn23)cc1` [Example 6, N-(4-methoxy-phenyl)-2-(2-methyl-1-phenyl-indolizin-3-yl)-2-oxo-acetamide], the MIC (in the assay with Aspergillus terreus AT4; in the assay with Aspergillus flavus; with Aspergillus terreus AT49; in assay [1]; in assay [2]; in the assay on Aspergillus niger) was over 10 µg/mL throughout.

Take `Cc1c(-c2ccccc2)c2ccccn2c1C(=O)C(=O)Nc1ccc(N2CCOCC2)cc1` [Example 7, 2-(2-methyl-1-phenyl-indolizin-3-yl)-N-(4-morpholin-4-yl-phenyl)-2-oxo-acetamide]: the MIC (with Aspergillus terreus AT4; in the assay with Aspergillus flavus; with Aspergillus terreus AT49; in assay [1]; in assay [2]; with Aspergillus niger) was over 10 µg/mL in each case.

As to `CN1/C(=N/c2ccc(NC(=O)C(=O)c3c(-c4ccccc4)cc4ccccn34)cc2)OCC1(C)C` [Example 8, 2-oxo-2-(2-phenyl-indolizin-3-yl)-N-{4-[3,4,4-trimethyl-oxazolidin-(2Z)-ylideneamino]-phenyl}-acetamide], the MIC in the assay on Aspergillus terreus AT4 was over 10 µg/mL; with Aspergillus flavus it was over 10 µg/mL; in the assay on Aspergillus terreus AT49, 1 to 10 µg/mL (≈ 2.14 to 21.4 µM); in assay [1] it was over 10 µg/mL; in assay [2], over 10 µg/mL; with Aspergillus niger it was over 10 µg/mL.
